# Source: patent US20260115250A1, “METHODS OF TREATING AGE-RELATED MACULAR DEGENERATION” (Character Biosciences, Inc., priority 2022, published 2026)
# Ends that are not written are not given here. Peptide text beside a SMILES is read from it.
# Columns and labels:
# LDLR [1] = biological target: T1, LDLR (Homo sapiens, UniProt P01130); assay: LDLR binding (SPR), high surfactant preparation; conditions: high surfactant preparation (HBS-P+), 1:1 binding model; read-out: binding KD to LDLR
# Method in brief: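 Surface plasmon resonance with recombinant LDLR amine-coupled to a CM5 chip at 1000 RU. Peptides, 5 μM top concentration then 1:3 dilutions (5 levels) in HBS-P+ with 1 mM CaCl2, injected 120 seconds at 30 μL/sec; multi-cycle kinetics fitted to a 1:1 binding model.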
# Target sequence in this assay (P01130 22-860): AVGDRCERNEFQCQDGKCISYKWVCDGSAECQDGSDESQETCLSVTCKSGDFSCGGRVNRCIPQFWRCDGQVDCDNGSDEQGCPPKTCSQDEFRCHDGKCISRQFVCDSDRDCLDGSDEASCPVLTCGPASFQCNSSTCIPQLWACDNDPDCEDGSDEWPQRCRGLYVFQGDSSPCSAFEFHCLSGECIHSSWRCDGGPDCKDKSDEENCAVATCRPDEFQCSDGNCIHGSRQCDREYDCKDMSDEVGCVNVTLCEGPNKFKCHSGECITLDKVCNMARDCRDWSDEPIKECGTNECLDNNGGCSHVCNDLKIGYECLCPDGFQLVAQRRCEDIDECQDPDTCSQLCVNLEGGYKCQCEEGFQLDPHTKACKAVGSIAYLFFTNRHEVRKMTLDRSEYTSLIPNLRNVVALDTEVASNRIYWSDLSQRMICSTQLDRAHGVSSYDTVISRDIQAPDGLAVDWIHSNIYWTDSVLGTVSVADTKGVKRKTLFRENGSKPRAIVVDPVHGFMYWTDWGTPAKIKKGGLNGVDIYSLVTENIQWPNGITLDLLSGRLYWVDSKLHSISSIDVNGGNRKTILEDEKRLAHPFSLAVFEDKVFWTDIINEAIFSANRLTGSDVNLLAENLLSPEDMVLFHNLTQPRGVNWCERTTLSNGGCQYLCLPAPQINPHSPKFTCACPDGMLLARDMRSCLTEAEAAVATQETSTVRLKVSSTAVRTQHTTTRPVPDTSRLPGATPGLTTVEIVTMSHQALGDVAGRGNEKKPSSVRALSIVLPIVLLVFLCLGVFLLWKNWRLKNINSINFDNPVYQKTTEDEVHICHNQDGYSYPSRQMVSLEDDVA
# LDLR [2] = biological target: T1, LDLR; assay: KD, Peptide (μM)
# Target sequence in this assay (P01130 22-860 limits assumed): as the sequence (P01130 22-860) above
# From the text: Title: Buffer: HBS + 0.005% P20
# Head of the field: KD, Peptide (μM)
# First copying reader's note: KD values are for binding to LDLR by SPR, peptide alone versus peptide:DMPC lipid complex; the table continues on FIG. 24B.
# LDLR [3] = biological target: T1, LDLR; assay: KD (µM)
# From the text: First copying reader's note: Left of three side-by-side panels of FIG. 23; the KD cells hold value ± error together. Where the first naming reader finds the target: description_of_the_figure: FIG. 23 is a table showing the binding kinetics results of LDLR binding assays (SPR)
# Target sequence in this assay (P01130 22-860 limits assumed): as the sequence (P01130 22-860) above
Compound,Kd (LDLR [1]) [µM],Kd (LDLR [2]) [µM],Kd (LDLR [3]) [µM]
CC(C)C[C@H](NC(=O)[C@H](CCCNC(=N)N)NC(=O)[C@H](CC(=O)O)NC(=O)[C@H](CCC(N)=O)NC(=O)[C@H](CC(C)C)NC(=O)[C@H](CCCCN)NC(=O)[C@H](CC(=O)O)NC(=O)CNC(=O)[C@H](CC(=O)O)NC(=O)[C@H](CCCNC(=N)N)NC(=O)[C@H](CC(C)C)NC(=O)[C@H](CC(C)C)NC(=O)[C@H](CCCNC(=N)N)NC(=O)[C@H](CCCCN)NC(=O)[C@H](CCCNC(=N)N)NC(=O)[C@H](CC(C)C)NC(=O)[C@H](CCCCN)NC(=O)[C@H](CCCNC(=N)N)NC(=O)[C@H](CC(C)C)NC(=O)[C@H](Cc1c[nH]cn1)NC(=O)[C@H](CO)NC(=O)[C@H](C)NC(=O)[C@@H](N)CC(C)C)C(=O)N[C@@H](C)C(=O)N[C@@H](CCC(=O)O)C(=O)N[C@@H](Cc1ccc(O)cc1)C(=O)N[C@@H](CCC(N)=O)C(=O)N[C@@H](C)C(=O)N[C@@H](CCCNC(=N)N)C(=O)N[C@@H](C)C(=O)N[C@@H](CCCCN)C(=O)N[C@@H](CCC(=O)O)C(=O)N[C@@H](C)C(=O)N[C@@H](Cc1ccccc1)C(=O)N[C@@H](CC(=O)O)C(=O)N[C@@H](CCCNC(=N)N)C(=O)O [T-048],< 10,11.4 ± 5.29,–
CC(C)C[C@H](NC(=O)[C@H](CCCNC(=N)N)NC(=O)[C@H](CCCCN)NC(=O)[C@H](CCC(N)=O)NC(=O)[C@H](CC(C)C)NC(=O)[C@H](CC(=O)O)NC(=O)[C@H](CC(=O)O)NC(=O)[C@H](C)NC(=O)[C@H](CC(=O)O)NC(=O)[C@H](CCCNC(=N)N)NC(=O)[C@H](CC(C)C)NC(=O)[C@H](CC(C)C)NC(=O)[C@H](CCCNC(=N)N)NC(=O)[C@H](CCCCN)NC(=O)[C@H](CCCNC(=N)N)NC(=O)[C@H](CC(C)C)NC(=O)[C@H](CCCCN)NC(=O)[C@H](CCCNC(=N)N)NC(=O)[C@H](CC(C)C)NC(=O)[C@@H](N)Cc1c[nH]cn1)C(=O)N[C@@H](C)C(=O)N[C@H](C(=O)N[C@@H](Cc1ccc(O)cc1)C(=O)N[C@@H](CCC(N)=O)C(=O)N[C@@H](C)C(=O)O)C(C)C [T-045] (H-HLRKLRKRLLRDADDLQKRLAVYQA-OH; N-terminus and C-terminus assumed),–,11800 ± 1250,71.2 ± 31.8
CC(C)C[C@H](NC(=O)[C@H](CCCNC(=N)N)NC(=O)[C@H](CC(=O)O)NC(=O)[C@H](CCC(N)=O)NC(=O)[C@H](CC(C)C)NC(=O)[C@H](CCCCN)NC(=O)[C@H](CC(=O)O)NC(=O)[C@H](C)NC(=O)[C@H](CC(=O)O)NC(=O)[C@H](CCCNC(=N)N)NC(=O)[C@H](CC(C)C)NC(=O)[C@H](CC(C)C)NC(=O)[C@H](CCCNC(=N)N)NC(=O)[C@H](CCCCN)NC(=O)[C@H](CCCNC(=N)N)NC(=O)[C@H](CC(C)C)NC(=O)[C@H](CCCCN)NC(=O)[C@H](CCCNC(=N)N)NC(=O)[C@H](CC(C)C)NC(=O)[C@@H](N)Cc1c[nH]cn1)C(=O)N[C@@H](C)C(=O)N[C@@H](CCC(=O)O)C(=O)N[C@@H](Cc1ccc(O)cc1)C(=O)N[C@@H](CCC(N)=O)C(=O)N[C@@H](C)C(=O)N[C@@H](CCCNC(=N)N)C(=O)N[C@@H](C)C(=O)N[C@@H](CCCCN)C(=O)N[C@@H](CCC(=O)O)C(=O)N[C@@H](C)C(=O)N[C@@H](Cc1ccccc1)C(=O)N[C@@H](CC(=O)O)C(=O)N[C@@H](CCCNC(=N)N)C(=O)O [T-050] (H-HLRKLRKRLLRDADKLQDRLAEYQARAKEAFDR-OH; N-terminus and C-terminus assumed),–,–,528.5 ± 0.71
LVQYRGEVQAMLGQSTEELRVRLASHLRKLRKRLLRDADDLQ [T-071],–,18.5 ± 2.69,–

# The remaining compounds from weak to strong by Kd (LDLR [3]), led by results:
Kd (LDLR [1]) [µM],Kd (LDLR [2]) [µM],Kd (LDLR [3]) [µM],Compound
–,840 ± 1150,48.6,CC(C)C[C@H](NC(=O)[C@H](CCCNC(=N)N)NC(=O)[C@H](CCCCN)NC(=O)[C@H](CCC(N)=O)NC(=O)[C@H](CC(C)C)NC(=O)[C@H](CC(=O)O)NC(=O)[C@H](CC(=O)O)NC(=O)[C@H](C)NC(=O)[C@H](CC(=O)O)NC(=O)[C@H](CCCNC(=N)N)NC(=O)[C@H](CC(C)C)NC(=O)[C@H](CC(C)C)NC(=O)[C@H](CCCNC(=N)N)NC(=O)[C@H](CCCCN)NC(=O)[C@H](CCCNC(=N)N)NC(=O)[C@H](CC(C)C)NC(=O)[C@H](CCCCN)NC(=O)[C@H](CCCNC(=N)N)NC(=O)[C@H](CC(C)C)NC(=O)[C@@H](N)Cc1c[nH]cn1)C(=O)N[C@@H](C)C(=O)N[C@H](C(=O)N[C@@H](Cc1ccc(O)cc1)C(=O)N[C@@H](CCC(N)=O)C(=O)N[C@@H](C)C(=O)NCC(=O)N[C@@H](C)C(=O)N[C@@H](CCCNC(=N)N)C(=O)N[C@@H](CCC(=O)O)C(=O)NCC(=O)N[C@@H](C)C(=O)N[C@@H](CCC(=O)O)C(=O)N[C@@H](CCCNC(=N)N)C(=O)O)C(C)C [T-043] (H-HLRKLRKRLLRDADDLQKRLAVYQAGAREGAER-OH; N-terminus and C-terminus assumed)
< 10,–,3.26 ± 0.23,CC(C)C[C@H](NC(=O)[C@H](CCCNC(=N)N)NC(=O)[C@H](CCCCN)NC(=O)[C@H](CCC(N)=O)NC(=O)[C@H](CC(C)C)NC(=O)[C@H](CC(=O)O)NC(=O)[C@H](CC(=O)O)NC(=O)[C@H](C)NC(=O)[C@H](CC(=O)O)NC(=O)[C@H](CCCNC(=N)N)NC(=O)[C@H](C)NC(=O)[C@H](CC(C)C)NC(=O)[C@H](CCCNC(=N)N)NC(=O)[C@H](CCCCN)NC(=O)[C@H](CCCNC(=N)N)NC(=O)[C@H](CC(C)C)NC(=O)[C@H](CCCCN)NC(=O)[C@H](CCCNC(=N)N)NC(=O)[C@H](CC(C)C)NC(=O)[C@H](Cc1c[nH]cn1)NC(=O)[C@H](CCCNC(=N)N)NC(=O)[C@H](C)NC(=O)[C@@H](N)CC(C)C)C(=O)N[C@@H](C)C(=O)N[C@H](C(=O)N[C@@H](Cc1ccc(O)cc1)C(=O)N[C@@H](CCC(N)=O)C(=O)N[C@@H](C)C(=O)NCC(=O)N[C@@H](C)C(=O)N[C@@H](CCCNC(=N)N)C(=O)N[C@@H](CCC(=O)O)C(=O)NCC(=O)N[C@@H](C)C(=O)N[C@@H](CCC(=O)O)C(=O)N[C@@H](CCCNC(=N)N)C(=O)O)C(C)C [T-047] (H-LARHLRKLRKRLARDADDLQKRLAVYQAGAREGAER-OH)
< 10,–,3.26 ± 0.2,CC(C)C[C@H](NC(=O)[C@H](CCCNC(=N)N)NC(=O)[C@H](CC(=O)O)NC(=O)[C@H](CCC(N)=O)NC(=O)[C@H](CC(C)C)NC(=O)[C@H](CCCCN)NC(=O)[C@H](CC(=O)O)NC(=O)CNC(=O)[C@H](CC(=O)O)NC(=O)[C@H](CCCNC(=N)N)NC(=O)[C@H](C)NC(=O)[C@H](CC(C)C)NC(=O)[C@H](CCCNC(=N)N)NC(=O)[C@H](CCCCN)NC(=O)[C@H](CCCNC(=N)N)NC(=O)[C@H](CC(C)C)NC(=O)[C@H](CCCCN)NC(=O)[C@H](CCCNC(=N)N)NC(=O)[C@H](CC(C)C)NC(=O)[C@H](Cc1c[nH]cn1)NC(=O)[C@H](CCCNC(=N)N)NC(=O)[C@H](C)NC(=O)[C@@H](N)CC(C)C)C(=O)N[C@@H](C)C(=O)N[C@@H](CCC(=O)O)C(=O)N[C@@H](Cc1ccc(O)cc1)C(=O)N[C@@H](CCC(N)=O)C(=O)N[C@@H](C)C(=O)N[C@@H](CCCNC(=N)N)C(=O)N[C@@H](C)C(=O)N[C@@H](CCCCN)C(=O)N[C@@H](CCC(=O)O)C(=O)N[C@@H](C)C(=O)N[C@@H](Cc1ccccc1)C(=O)N[C@@H](CC(=O)O)C(=O)N[C@@H](CCCNC(=N)N)C(=O)O [T-049] (H-LARHLRKLRKRLARDGDKLQDRLAEYQARAKEAFDR-OH)
